Data: PMC6704710, “Preclinical evaluation of 3D185, a novel potent inhibitor of FGFR1/2/3 and CSF-1R, in FGFR-dependent and macrophage-dominant cancer models” (Journal of Experimental & Clinical Cancer Research : CR, 2019)

Key:
Experiment in all cases: Eurofins kinase panel
Format in all cases: biochemical
Conditions in all cases: read-out: Inhibition rate (%)
Met(Y1248D)(h) = molecular target: T1, Met(Y1248D)(h) (Homo sapiens, UniProt P08581, Y1230D)
T1 construct: purchased Eurofins (KinaseProfiler)
T1 sequence (P08581 956-1390 Y1230D limits assumed): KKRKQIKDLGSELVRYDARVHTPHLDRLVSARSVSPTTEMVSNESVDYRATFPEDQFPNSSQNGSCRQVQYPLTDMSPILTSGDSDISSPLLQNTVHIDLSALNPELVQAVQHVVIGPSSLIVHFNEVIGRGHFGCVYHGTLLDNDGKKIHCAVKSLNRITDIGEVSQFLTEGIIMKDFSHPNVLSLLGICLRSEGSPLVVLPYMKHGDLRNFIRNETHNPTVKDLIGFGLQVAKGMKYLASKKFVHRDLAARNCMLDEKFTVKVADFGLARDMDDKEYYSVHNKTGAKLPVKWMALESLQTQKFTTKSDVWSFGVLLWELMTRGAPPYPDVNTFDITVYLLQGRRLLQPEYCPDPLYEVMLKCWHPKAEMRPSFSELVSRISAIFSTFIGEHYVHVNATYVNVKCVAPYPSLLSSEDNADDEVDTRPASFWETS

GRK5(h) = molecular target: T2, GRK5(h) (Homo sapiens, UniProt P34947)
T2 construct: purchased Eurofins (KinaseProfiler)

MOK(h) = molecular target: T3, MOK(h) (Homo sapiens, UniProt Q9UQ07)
T3 construct: purchased Eurofins (KinaseProfiler)
T3 sequence (Q9UQ07 1-419): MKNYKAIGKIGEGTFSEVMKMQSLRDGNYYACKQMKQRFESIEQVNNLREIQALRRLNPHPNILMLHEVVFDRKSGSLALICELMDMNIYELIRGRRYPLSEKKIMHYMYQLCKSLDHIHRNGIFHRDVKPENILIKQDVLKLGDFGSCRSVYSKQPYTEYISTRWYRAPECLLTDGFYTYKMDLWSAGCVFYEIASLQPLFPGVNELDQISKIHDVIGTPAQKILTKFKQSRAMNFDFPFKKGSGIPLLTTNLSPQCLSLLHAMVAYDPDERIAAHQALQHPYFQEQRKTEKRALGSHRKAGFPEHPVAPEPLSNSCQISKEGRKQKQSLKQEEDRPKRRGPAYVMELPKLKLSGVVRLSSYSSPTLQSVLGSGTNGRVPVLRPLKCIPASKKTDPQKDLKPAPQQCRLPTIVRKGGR

CLK1(h) = molecular target: T4, CLK1(h) (Homo sapiens, UniProt P49759)
T4 construct: purchased Eurofins (KinaseProfiler)
T4 sequence (P49759 whole entry): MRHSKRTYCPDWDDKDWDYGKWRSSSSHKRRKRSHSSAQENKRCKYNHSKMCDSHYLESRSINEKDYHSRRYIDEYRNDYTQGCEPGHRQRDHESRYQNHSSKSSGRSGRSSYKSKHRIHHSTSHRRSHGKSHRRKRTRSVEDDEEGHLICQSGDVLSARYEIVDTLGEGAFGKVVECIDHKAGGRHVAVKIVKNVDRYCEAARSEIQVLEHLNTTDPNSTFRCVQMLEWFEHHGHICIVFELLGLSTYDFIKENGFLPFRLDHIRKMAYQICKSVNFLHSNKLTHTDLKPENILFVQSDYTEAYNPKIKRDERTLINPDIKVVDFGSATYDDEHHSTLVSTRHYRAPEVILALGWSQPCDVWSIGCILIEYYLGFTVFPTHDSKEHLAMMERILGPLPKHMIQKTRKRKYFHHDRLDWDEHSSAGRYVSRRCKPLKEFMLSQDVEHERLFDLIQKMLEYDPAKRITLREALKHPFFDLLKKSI

Rsk4(h) = molecular target: T5, Rsk4(h) (Homo sapiens, UniProt Q9UK32)
T5 construct: purchased Eurofins (KinaseProfiler)

Met(Y1248C)(h) = molecular target: T6, Met(Y1248C)(h) (Homo sapiens, UniProt P08581, Y1230C)
T6 construct: purchased Eurofins (KinaseProfiler)
T6 sequence (P08581 956-1390 Y1230C limits assumed): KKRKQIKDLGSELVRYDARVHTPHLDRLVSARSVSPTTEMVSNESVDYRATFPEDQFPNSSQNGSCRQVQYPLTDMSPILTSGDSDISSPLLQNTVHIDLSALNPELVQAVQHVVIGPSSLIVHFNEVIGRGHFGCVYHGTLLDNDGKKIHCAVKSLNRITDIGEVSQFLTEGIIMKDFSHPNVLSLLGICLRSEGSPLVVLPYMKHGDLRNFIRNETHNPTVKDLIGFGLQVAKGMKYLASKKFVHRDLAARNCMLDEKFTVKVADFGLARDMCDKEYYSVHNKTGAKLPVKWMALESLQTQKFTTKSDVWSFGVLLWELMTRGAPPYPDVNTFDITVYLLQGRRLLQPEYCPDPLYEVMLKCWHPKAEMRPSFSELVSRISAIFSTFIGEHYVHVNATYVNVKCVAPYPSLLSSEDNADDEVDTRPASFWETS

CHK1(h) = molecular target: T7, CHK1(h) (Homo sapiens, UniProt O14757)
T7 construct: purchased Eurofins (KinaseProfiler)
T7 sequence (O14757 1-476): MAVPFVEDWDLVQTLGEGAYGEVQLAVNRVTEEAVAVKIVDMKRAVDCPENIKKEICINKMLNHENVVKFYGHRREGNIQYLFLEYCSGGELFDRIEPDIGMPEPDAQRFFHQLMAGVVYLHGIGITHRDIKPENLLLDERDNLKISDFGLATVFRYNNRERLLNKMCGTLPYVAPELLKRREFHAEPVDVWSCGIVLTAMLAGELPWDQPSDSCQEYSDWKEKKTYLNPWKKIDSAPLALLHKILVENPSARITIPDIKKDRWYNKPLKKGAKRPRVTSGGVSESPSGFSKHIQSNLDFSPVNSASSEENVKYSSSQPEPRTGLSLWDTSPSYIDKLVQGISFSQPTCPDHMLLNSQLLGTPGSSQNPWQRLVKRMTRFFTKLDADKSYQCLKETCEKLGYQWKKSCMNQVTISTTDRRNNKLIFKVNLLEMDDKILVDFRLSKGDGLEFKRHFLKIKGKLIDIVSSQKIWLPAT

CaMKIß(h) = molecular target: T8, CaMKIß(h) (Homo sapiens, UniProt Q6P2M8)
T8 construct: purchased Eurofins (KinaseProfiler)
T8 sequence (Q6P2M8 whole entry): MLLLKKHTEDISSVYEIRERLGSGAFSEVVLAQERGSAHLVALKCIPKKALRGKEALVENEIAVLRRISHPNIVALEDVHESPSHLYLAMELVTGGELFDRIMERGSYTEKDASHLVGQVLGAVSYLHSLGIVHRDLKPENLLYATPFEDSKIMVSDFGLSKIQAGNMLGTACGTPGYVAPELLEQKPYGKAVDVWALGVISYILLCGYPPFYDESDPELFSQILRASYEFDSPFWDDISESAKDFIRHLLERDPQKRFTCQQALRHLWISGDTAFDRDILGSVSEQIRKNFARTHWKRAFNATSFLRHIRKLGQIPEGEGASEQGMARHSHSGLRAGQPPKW

NEK6(h) = molecular target: T9, NEK6(h) (Homo sapiens, UniProt Q9HC98)
T9 construct: purchased Eurofins (KinaseProfiler)
T9 sequence (Q9HC98 whole entry): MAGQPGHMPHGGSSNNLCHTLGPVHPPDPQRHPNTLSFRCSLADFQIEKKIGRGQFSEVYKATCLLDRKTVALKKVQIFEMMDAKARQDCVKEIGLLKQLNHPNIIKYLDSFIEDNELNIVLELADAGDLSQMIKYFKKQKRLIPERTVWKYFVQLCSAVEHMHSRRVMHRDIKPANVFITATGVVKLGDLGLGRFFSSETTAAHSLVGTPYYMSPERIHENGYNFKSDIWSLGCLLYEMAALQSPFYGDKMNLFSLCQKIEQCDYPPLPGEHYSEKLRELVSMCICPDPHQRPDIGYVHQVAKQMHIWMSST

ALK6(h) = molecular target: T10, ALK6(h) (Homo sapiens, UniProt O00238)
T10 construct: purchased Eurofins (KinaseProfiler)
T10 sequence (O00238 14-502): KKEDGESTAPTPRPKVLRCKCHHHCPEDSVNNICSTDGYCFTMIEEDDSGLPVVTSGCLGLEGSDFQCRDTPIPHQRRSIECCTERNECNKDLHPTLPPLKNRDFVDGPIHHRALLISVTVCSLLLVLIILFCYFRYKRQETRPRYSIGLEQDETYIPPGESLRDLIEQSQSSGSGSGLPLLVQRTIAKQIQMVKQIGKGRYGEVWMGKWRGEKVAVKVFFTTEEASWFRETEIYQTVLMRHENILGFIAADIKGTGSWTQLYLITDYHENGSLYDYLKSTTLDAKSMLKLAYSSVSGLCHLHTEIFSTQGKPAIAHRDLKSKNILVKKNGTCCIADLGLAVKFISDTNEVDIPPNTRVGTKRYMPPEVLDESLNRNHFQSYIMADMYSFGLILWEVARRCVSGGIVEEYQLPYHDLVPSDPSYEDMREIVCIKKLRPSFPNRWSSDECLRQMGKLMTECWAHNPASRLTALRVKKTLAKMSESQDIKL

CK1γ1(h) = molecular target: T11, CK1γ1(h) (Homo sapiens, UniProt Q9HCP0)
T11 construct: purchased Eurofins (KinaseProfiler)

ErbB2(h) = molecular target: T12, ErbB2(h) (Homo sapiens, UniProt P04626)
T12 construct: purchased Eurofins (KinaseProfiler)

PKCγ(h) = molecular target: T13, PKCγ(h) (Homo sapiens, UniProt P05129)
T13 construct: purchased Eurofins (KinaseProfiler)

TLK2(h) = molecular target: T14, TLK2(h) (Homo sapiens, UniProt Q86UE8)
T14 construct: purchased Eurofins (KinaseProfiler)
T14 sequence (Q86UE8 whole entry): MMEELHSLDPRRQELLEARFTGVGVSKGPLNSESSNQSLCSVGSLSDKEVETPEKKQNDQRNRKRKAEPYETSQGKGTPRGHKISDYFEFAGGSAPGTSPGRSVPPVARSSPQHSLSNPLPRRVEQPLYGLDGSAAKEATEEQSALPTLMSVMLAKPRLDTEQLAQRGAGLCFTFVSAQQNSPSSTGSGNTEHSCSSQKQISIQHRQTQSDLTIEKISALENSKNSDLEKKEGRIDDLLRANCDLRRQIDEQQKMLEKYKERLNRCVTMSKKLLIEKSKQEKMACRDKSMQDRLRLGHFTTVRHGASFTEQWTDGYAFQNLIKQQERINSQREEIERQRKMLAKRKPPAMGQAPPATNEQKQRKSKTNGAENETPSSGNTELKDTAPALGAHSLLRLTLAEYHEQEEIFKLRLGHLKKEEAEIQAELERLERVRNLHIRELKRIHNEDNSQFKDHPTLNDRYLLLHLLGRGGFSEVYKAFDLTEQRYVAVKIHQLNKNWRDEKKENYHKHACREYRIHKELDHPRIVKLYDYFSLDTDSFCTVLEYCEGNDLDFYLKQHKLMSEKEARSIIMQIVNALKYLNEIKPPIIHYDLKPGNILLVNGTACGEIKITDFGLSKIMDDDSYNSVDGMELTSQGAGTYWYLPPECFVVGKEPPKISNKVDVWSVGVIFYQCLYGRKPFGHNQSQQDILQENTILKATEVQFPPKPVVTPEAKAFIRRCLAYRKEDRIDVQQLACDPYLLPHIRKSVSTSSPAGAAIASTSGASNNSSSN

CLIK1(h) = molecular target: T15, CLIK1(h) (Homo sapiens, UniProt Q8TDR2)
T15 construct: purchased Eurofins (KinaseProfiler)
T15 sequence (Q8TDR2 whole entry): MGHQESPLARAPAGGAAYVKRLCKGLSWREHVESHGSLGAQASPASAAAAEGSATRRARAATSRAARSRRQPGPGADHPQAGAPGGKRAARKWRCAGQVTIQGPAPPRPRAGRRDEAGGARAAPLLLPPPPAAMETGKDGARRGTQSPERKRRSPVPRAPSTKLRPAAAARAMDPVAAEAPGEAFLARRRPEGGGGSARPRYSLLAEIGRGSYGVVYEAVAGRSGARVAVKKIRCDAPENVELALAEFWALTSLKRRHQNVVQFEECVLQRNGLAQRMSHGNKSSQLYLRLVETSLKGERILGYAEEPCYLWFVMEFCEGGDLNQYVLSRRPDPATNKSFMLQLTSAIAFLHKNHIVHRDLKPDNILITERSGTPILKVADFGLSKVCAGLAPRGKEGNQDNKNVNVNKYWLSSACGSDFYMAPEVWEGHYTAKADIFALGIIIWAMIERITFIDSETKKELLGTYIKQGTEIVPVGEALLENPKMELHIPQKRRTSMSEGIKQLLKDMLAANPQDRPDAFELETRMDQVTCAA

ATR/ATRIP(h) = molecular target: T16, ATR/ATRIP(h) (Homo sapiens, UniProt Q13535)
T16 construct: purchased Eurofins (KinaseProfiler)

TYK2(h) = molecular target: T17, TYK2(h) (Homo sapiens, UniProt P29597)
T17 construct: purchased Eurofins (KinaseProfiler)
T17 sequence (P29597 whole entry): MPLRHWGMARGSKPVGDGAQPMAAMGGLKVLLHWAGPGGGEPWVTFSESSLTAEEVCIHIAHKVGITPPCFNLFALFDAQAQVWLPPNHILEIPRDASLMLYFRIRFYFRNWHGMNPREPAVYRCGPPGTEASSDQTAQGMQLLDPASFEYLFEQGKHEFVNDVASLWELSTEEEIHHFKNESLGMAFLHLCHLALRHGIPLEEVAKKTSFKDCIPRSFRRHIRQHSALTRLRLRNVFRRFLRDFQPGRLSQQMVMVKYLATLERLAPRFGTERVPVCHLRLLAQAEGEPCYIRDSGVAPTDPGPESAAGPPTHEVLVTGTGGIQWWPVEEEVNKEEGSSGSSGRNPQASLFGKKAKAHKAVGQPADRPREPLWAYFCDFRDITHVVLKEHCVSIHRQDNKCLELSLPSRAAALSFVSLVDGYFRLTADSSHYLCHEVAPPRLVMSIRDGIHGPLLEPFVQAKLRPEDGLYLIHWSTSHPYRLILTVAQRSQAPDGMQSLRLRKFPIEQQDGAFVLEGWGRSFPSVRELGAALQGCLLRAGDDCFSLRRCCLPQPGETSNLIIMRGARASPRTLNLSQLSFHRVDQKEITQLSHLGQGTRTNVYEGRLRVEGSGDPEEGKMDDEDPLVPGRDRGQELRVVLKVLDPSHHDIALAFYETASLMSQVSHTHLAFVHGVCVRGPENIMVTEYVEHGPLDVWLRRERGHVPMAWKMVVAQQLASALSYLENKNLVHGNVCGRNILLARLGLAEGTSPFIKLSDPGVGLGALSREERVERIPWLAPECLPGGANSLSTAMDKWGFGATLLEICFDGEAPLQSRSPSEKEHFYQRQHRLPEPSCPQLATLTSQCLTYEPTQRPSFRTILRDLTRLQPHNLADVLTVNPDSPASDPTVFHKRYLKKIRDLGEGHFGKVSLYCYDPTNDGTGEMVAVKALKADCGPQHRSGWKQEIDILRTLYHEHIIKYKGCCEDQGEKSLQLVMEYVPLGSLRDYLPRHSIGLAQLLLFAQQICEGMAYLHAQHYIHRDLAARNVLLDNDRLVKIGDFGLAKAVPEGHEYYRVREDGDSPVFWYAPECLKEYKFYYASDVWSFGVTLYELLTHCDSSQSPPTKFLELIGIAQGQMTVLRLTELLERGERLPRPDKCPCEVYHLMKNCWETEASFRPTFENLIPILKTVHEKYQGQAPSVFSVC

Molecule `COc1cc(OC)c(Cl)c(-c2ccc3c(NC(=O)c4ccc(N5CCNC(C)(C)C5)cc4)n[nH]c3n2)c1Cl` [3D185] has an inhibition at 0.01 µM (Met(Y1248D)(h); 10 nM) of -12%, an inhibition at 0.1 µM (Met(Y1248D)(h); 100 nM) of -1% and an inhibition at 1 µM (Met(Y1248D)(h); 1000 nM) of 18%. It also gave an inhibition at 0.01 µM (GRK5(h); 10 nM) of -1%, an inhibition at 0.1 µM (GRK5(h); 100 nM) of -9% and an inhibition at 1 µM (GRK5(h); 1000 nM) of 3%. The inhibition at 0.01 µM (MOK(h); 10 nM) was -7%, the inhibition at 0.1 µM (MOK(h); 100 nM) was 6% and the inhibition at 1 µM (MOK(h); 1000 nM) was 1%. The inhibition at 0.01 µM (CLK1(h); 10 nM) was -7%, the inhibition at 0.1 µM (CLK1(h); 100 nM) was -5% and the inhibition at 1 µM (CLK1(h); 1000 nM) was 7%. It also gave an inhibition at 0.01 µM (Rsk4(h); 10 nM) of 0%, an inhibition at 0.1 µM (Rsk4(h); 100 nM) of 6% and an inhibition at 1 µM (Rsk4(h); 1000 nM) of 19%. It also gave an inhibition at 0.01 µM (Met(Y1248C)(h); 10 nM) of -9%, an inhibition at 0.1 µM (Met(Y1248C)(h); 100 nM) of -2% and an inhibition at 1 µM (Met(Y1248C)(h); 1000 nM) of 5%. For the same molecule, the inhibition at 0.01 µM (CHK1(h); 10 nM) was 3%, the inhibition at 0.1 µM (CHK1(h); 100 nM) was -6% and the inhibition at 1 µM (CHK1(h); 1000 nM) was -3%. The inhibition at 0.01 µM (CaMKIß(h); 10 nM) was -2%, the inhibition at 0.1 µM (CaMKIß(h); 100 nM) was 6% and the inhibition at 1 µM (CaMKIß(h); 1000 nM) was 32%. For the same molecule, the inhibition at 0.01 µM (NEK6(h); 10 nM) was -7%, the inhibition at 0.1 µM (NEK6(h); 100 nM) was 4% and the inhibition at 1 µM (NEK6(h); 1000 nM) was 2%. It also gave an inhibition at 0.01 µM (ALK6(h); 10 nM) of 3%, an inhibition at 0.1 µM (ALK6(h); 100 nM) of -11% and an inhibition at 1 µM (ALK6(h); 1000 nM) of -5%. It also gave an inhibition at 0.01 µM (CK1γ1(h); 10 nM) of 9%, an inhibition at 0.1 µM (CK1γ1(h); 100 nM) of -4% and an inhibition at 1 µM (CK1γ1(h); 1000 nM) of 2%. For the same molecule, the inhibition at 0.01 µM (ErbB2(h); 10 nM) was -7%, the inhibition at 0.1 µM (ErbB2(h); 100 nM) was -11% and the inhibition at 1 µM (ErbB2(h); 1000 nM) was -11%. For the same molecule, the inhibition at 0.01 µM (PKCγ(h); 10 nM) was -4%, the inhibition at 0.1 µM (PKCγ(h); 100 nM) was -8% and the inhibition at 1 µM (PKCγ(h); 1000 nM) was -1%. It also gave an inhibition at 0.01 µM (TLK2(h); 10 nM) of 0%, an inhibition at 0.1 µM (TLK2(h); 100 nM) of -1% and an inhibition at 1 µM (TLK2(h); 1000 nM) of -1%. It also gave an inhibition at 0.01 µM (CLIK1(h); 10 nM) of 0%, an inhibition at 0.1 µM (CLIK1(h); 100 nM) of -1% and an inhibition at 1 µM (CLIK1(h); 1000 nM) of 12%. For the same molecule, the inhibition at 0.01 µM (ATR/ATRIP(h); 10 nM) was -4%, the inhibition at 0.1 µM (ATR/ATRIP(h); 100 nM) was 10% and the inhibition at 1 µM (ATR/ATRIP(h); 1000 nM) was 6%. For the same molecule, the inhibition at 0.01 µM (TYK2(h); 10 nM) was 1%, the inhibition at 0.1 µM (TYK2(h); 100 nM) was 14% and the inhibition at 1 µM (TYK2(h); 1000 nM) was 67%.
